# Measured values published in patent US8568755B2 (priority 2007, dated 2013).
# Values joined by “and” are separate entries in the source; they are usually repeats but may differ in a detail not shown here. Equal values may be shown once. Read-outs that look alike come from different tables or passages of the source.
# How the values were obtained:
# Sphaerotheca fuliginea = format: in vivo
# Septoria nodorum = assay: Test on preventive effect against wheat glum bloth (Test Example 3); format: in vivo
# Procedure: Wheat (cultivar: Norin-61-go) was cultivated in a plastic pot having a diameter of 7.5 cm, and when it reached 1.5-leaf stage, a mixed chemical solution having the respective sample compounds adjusted to prescribed concentrations, was applied by a spray gun in an amount of 10 ml per seedling. After the chemical solution dried, a suspension of conidia of Septoria nodorum was sprayed and inoculated and maintained at 20° C. for 7 days (for the first 3 days maintained under high humidity condition). Thereafter, the area of lesions was investigated, and the diseased area ratio to non-treated section was obtained by the following equation. Diseased area ratio to non-treated section=(a/b)×100
# a: Average area of lesions in treated section
# b: Average area of lesions in non-treated section
# Further, the theoretical value was calculated by a Colby's formula and shown in brackets ( ) in Tables 3-1 to 3-14. Since the diseased area ratio to non-treated section (experimental value) is lower than the theoretical value, the composition of the present invention can be said to have a synergistic effect.
# Botrytis cinerea [1] = assay: Test on preventive effect against kidney bean gray mold (Test Example 4); format: in vivo
# Procedure: Kidney bean (cultivar: Taisyou Kintoki) was cultivated in a plastic pot having a diameter of 12.0 cm, and when it reached 2.5-leaf stage, a mixed chemical solution having the respective test compounds adjusted to prescribed concentrations, was applied by a spray gun in an amount of 10 ml per seedling. After the chemical solution dried, the leaf was cut out, and a filter paper disk (8 mm in diameter) was placed on the leaf. Then, 120 μl of a suspension of spores of Botrytis cinerea (1.0×10^6 spores/ml) was dropped thereon and inoculated. The system was maintained under a humidity condition at 20° C. for three days, whereupon the area of lesions was investigated, and the diseased area ratio to non-treated section was obtained in the same manner as in Test Example 3. Further, the theoretical value was calculated by a Colby's formula and shown in brackets ( ) in Tables 4-1 to 4-19. Since the diseased area ratio to non-treated section (experimental value) is lower than the theoretical value, the composition of the present invention can be said to have a synergistic effect.
# Phyicularia oryzae = format: cell-based
# Botrytis cinerea [2] = assay: Test on antifungal activity against gray mold pathogen, mycelial growth on agar (Test Example 6); format: cell-based
# Procedure: Mycelial growth of Botrytis cinerea preliminarily obtained by cultivation was punched out by a cork borer having a diameter of 4 mm and transplanted on a potato sucrose agar medium containing mixed chemical agents adjusted to prescribed concentrations. The system was left to stand at 25° C. for 3 days for cultivation, whereupon the diameter of mycelial growth was measured. The incidence to non-treated section was obtained in the same manner as the above Test Example 5, and the results are shown in Table 6-1 to 6-3.
# Further, the theoretical value was calculated by a Colby's formula and shown in brackets ( ) in Tables 6-1 to 6-3. Since the incidence to non-treated section is lower than the theoretical value, the composition of the present invention can be said to have a synergistic effect.
# Erysiphe graminis = assay: Test on preventive effect against wheat powdery mildew (Test Example 1); format: in vivo
# Botrytis cinerea [3] = assay: Test on antifungal activity against gray mold pathogen, intersecting filter papers (Test Examples 7 and 8); format: cell-based; settings: for controlling effect (contact of filter paper with mycelial growth area of Botrytis cinerea): single use, filter paper immersed in 30 ppm solution, 20° C. for 4 days; for distance from both ends of the filter paper to mycelial growth area of Botrytis cinerea (average): single use section, 30 ppm
structure (smiles),measurement,setting,value
"CCCC(C)Oc1ccc(C(=O)C(C)(C)NC(=O)c2ncccc2C(F)(F)F)cc1 (stereo not drawn) [Compound No. 11, N-[[4′-(2-pentyloxy)-1,1-dimethyl]phenacyl]-3-trifluoromethyl-2-pyridinecarboxamide]",diseased area ratio to non-treated section (experimental value),Sphaerotheca fuliginea; single use at 2 ppm,7.5 and 12.5 and 15.0 and 10.0
same,diseased area ratio to non-treated section (experimental value),Septoria nodorum; single use at 12.5 ppm,50.0
same,diseased area ratio to non-treated section (experimental value),Septoria nodorum; single use at 50 ppm,25.0
same,diseased area ratio to non-treated section (experimental value),Botrytis cinerea [1]; single use at 4 ppm,70.0
same,diseased area ratio to non-treated section (experimental value),Botrytis cinerea [1]; single use at 8 ppm,55.7
same,incidence to non-treated section (mycelial growth diameter),Phyicularia oryzae,63.0 and 73.9
same,incidence to non-treated section (mycelial growth diameter),Botrytis cinerea [2]; single use at 5 ppm,46.0
same,incidence to non-treated section (mycelial growth diameter),Botrytis cinerea [2]; single use at 50 ppm,32.3
CCCCC(C#N)(Cn1cncn1)c1ccc(Cl)cc1 (stereo not drawn) [myclobutanil],diseased area ratio to non-treated section (experimental value),Septoria nodorum; single use at 5 ppm,60.0
same,diseased area ratio to non-treated section (experimental value),Septoria nodorum; single use at 20 ppm,35.0
OC(Cc1ccccc1Cl)(Cn1nc[nH]c1=S)C1(Cl)CC1 (stereo not drawn) [prothioconazole],diseased area ratio to non-treated section (experimental value),Septoria nodorum; single use at 10 ppm,30.0
"Cc1ccsc1C(=O)NC(C)(C)C(=O)c1ccc(Cl)c(Cl)c1 [Compound No. 2, N-[(3′,4′-dichloro-1,1-dimethyl)phenacyl]-3-methyl-2-thiophenecarboxamide]",diseased area ratio to non-treated section,Erysiphe graminis; Compound (a) alone 125 ppm,97.5 and 90.0
same,diseased area ratio to non-treated section,Erysiphe graminis; Compound (a) alone 250 ppm,95.0 and 75.0
same,diseased area ratio to non-treated section,Erysiphe graminis; Compound (a) alone 500 ppm,70.0
same,diseased area ratio to non-treated section (experimental value),Septoria nodorum; single use at 12.5 ppm,50.0
same,diseased area ratio to non-treated section (experimental value),Septoria nodorum; single use at 50 ppm,35.0
same,diseased area ratio to non-treated section (experimental value),Botrytis cinerea [1]; single use at 4 ppm,65.0
same,incidence to non-treated section (mycelial growth diameter),Phyicularia oryzae,82.6
same,controlling effect (contact of filter paper with mycelial growth area of Botrytis cinerea),Botrytis cinerea [3],no adequate controlling effect
C/C(=N/Nc1nc(C)cc(C)n1)c1ccccc1C [ferimzone],incidence to non-treated section (mycelial growth diameter),Phyicularia oryzae; single use at 0.5 ppm,10.9
O=C(Cc1ccccc1)N/C(=N\OCC1CC1)c1c(C(F)(F)F)ccc(F)c1F [cyflufenamid],diseased area ratio to non-treated section (experimental value),Botrytis cinerea [1]; single use at 10 ppm,87.3
same,diseased area ratio to non-treated section (experimental value),Botrytis cinerea [1]; single use at 100 ppm,82.3
"O=[N+]([O-])c1cc(C(F)(F)F)c(Cl)c([N+](=O)[O-])c1Nc1ncc(C(F)(F)F)cc1Cl [fluazinam, reference compound]",diseased area ratio to non-treated section,Sphaerotheca fuliginea; partner fungicide alone 125 ppm,17.5
same,diseased area ratio to non-treated section,Sphaerotheca fuliginea; partner fungicide alone 250 ppm,4.0
same,diseased area ratio to non-treated section,Sphaerotheca fuliginea; partner fungicide alone 500 ppm,2.0
same,distance from both ends of the filter paper to mycelial growth area of Botrytis cinerea (average),Botrytis cinerea [3],5 mm
same,controlling effect (contact of filter paper with mycelial growth area of Botrytis cinerea),Botrytis cinerea [3],a certain controlling effect
CCCOc1nc2ccc(I)cc2c(=O)n1CCC [proquinazid],diseased area ratio to non-treated section (experimental value),Botrytis cinerea [1]; single use at 10 ppm,96.2
same,diseased area ratio to non-treated section (experimental value),Botrytis cinerea [1]; single use at 100 ppm,92.4
"CC1CCN(c2c(-c3c(F)cc(F)cc3F)c(Cl)nc3ncnn23)CC1 [Compound α, 5-chloro-7-(4-methylpiperidin-1-yl)-6-(2,4,6-trifluorophenyl)-[1,2,4]triazolo[1,5-a]pyrimidine, reference compound]",diseased area ratio to non-treated section (experimental value),Botrytis cinerea [1]; single use at 4 ppm,43.0
same,diseased area ratio to non-treated section (experimental value),Botrytis cinerea [1]; single use at 8 ppm,15.0
"Cc1cc(OC(C)C)ccc1C(=O)C(C)(C)NC(=O)c1ncccc1C(F)(F)F [Compound No. 4, N-[[2′-methyl-4′-(2-propyloxy)-1,1-dimethyl]phenacyl]-3-trifluoromethyl-2-pyridinecarboxamide]",diseased area ratio to non-treated section,Erysiphe graminis; Compound (a) alone 125 ppm,5.0 and 3.6
same,diseased area ratio to non-treated section,Erysiphe graminis; Compound (a) alone 250 ppm,0.6
same,diseased area ratio to non-treated section,Sphaerotheca fuliginea; Compound (a) alone 2 ppm,7.5
same,diseased area ratio to non-treated section (experimental value),Septoria nodorum; single use at 12.5 ppm,35.0
same,diseased area ratio to non-treated section (experimental value),Septoria nodorum; single use at 50 ppm,20.0
same,diseased area ratio to non-treated section (experimental value),Botrytis cinerea [1]; single use at 4 ppm,70.0 and 79.7
same,diseased area ratio to non-treated section (experimental value),Botrytis cinerea [1]; single use at 8 ppm,64.6
same,incidence to non-treated section (mycelial growth diameter),Phyicularia oryzae,69.6 and 71.7
same,incidence to non-treated section (mycelial growth diameter),Botrytis cinerea [2]; single use at 0.5 ppm,45.2
Cc1ccsc1C(=O)NC(C)(C)C(=O)c1ccc(OC(C)C)cc1 [No. 8],diseased area ratio to non-treated section,Erysiphe graminis; Compound No.x alone 63 ppm,60.0
same,diseased area ratio to non-treated section,Erysiphe graminis; Compound No.x alone 125 ppm,55.0 and 30.0
same,diseased area ratio to non-treated section,Sphaerotheca fuliginea; Compound No.x alone 1 ppm,81.3
same,diseased area ratio to non-treated section,Sphaerotheca fuliginea; Compound No.x alone 2 ppm,45.0 and 75.0
"Cc1cc(OC(C)C)ccc1C(=O)C(C)(C)NC(=O)c1sccc1C [Compound No. 5, N-[[2′-methyl-4′-(2-propyloxy)-1,1-dimethyl]phenacyl]-3-methyl-2-thiophenecarboxamide]",diseased area ratio to non-treated section,Erysiphe graminis; Compound (a) alone 250 ppm,0.6
same,diseased area ratio to non-treated section (experimental value),Septoria nodorum; single use at 12.5 ppm,30.0
same,diseased area ratio to non-treated section (experimental value),Septoria nodorum; single use at 50 ppm,20.0
same,diseased area ratio to non-treated section (experimental value),Botrytis cinerea [1]; single use at 4 ppm,74.0 and 83.5
same,diseased area ratio to non-treated section (experimental value),Botrytis cinerea [1]; single use at 8 ppm,74.7
same,incidence to non-treated section (mycelial growth diameter),Botrytis cinerea [2]; single use at 5 ppm,32.3
COC(=O)NCc1cc(/C(C)=N/OCc2cccc(C)n2)ccc1Cl [pyribencarb],diseased area ratio to non-treated section (experimental value),Botrytis cinerea [1]; single use at 4 ppm,70.0
same,diseased area ratio to non-treated section (experimental value),Botrytis cinerea [1]; single use at 8 ppm,65.0
CCCN(CCOc1c(Cl)cc(Cl)cc1Cl)C(=O)n1ccnc1 [prochloraz],diseased area ratio to non-treated section (experimental value),Septoria nodorum; single use at 5 ppm,40.0
same,diseased area ratio to non-treated section (experimental value),Septoria nodorum; single use at 20 ppm,15.0
O=C1C2CC=CCC2C(=O)N1SC(Cl)(Cl)Cl (stereo not drawn) [captan],incidence to non-treated section (mycelial growth diameter),Botrytis cinerea [2]; single use at 1 ppm,94.4
Cc1cc(OC(C)C)ccc1C(=O)C(C)(C)NC(=O)c1sccc1C [No. 5],diseased area ratio to non-treated section,Erysiphe graminis; Compound No.x alone 16 ppm,25.0
same,diseased area ratio to non-treated section,Erysiphe graminis; Compound No.x alone 31 ppm,17.5 and 12.5
same,diseased area ratio to non-treated section,Erysiphe graminis; Compound No.x alone 63 ppm,10.0
same,diseased area ratio to non-treated section,Erysiphe graminis; Compound No.x alone 125 ppm,2.5
same,diseased area ratio to non-treated section,Sphaerotheca fuliginea; Compound No.x alone 8 ppm,2.5
CC(C)Oc1cccc(NC(=O)c2ccccc2C(F)(F)F)c1 [flutolanil],diseased area ratio to non-treated section,Erysiphe graminis; fungicide (b) alone 500 ppm,7.5
same,diseased area ratio to non-treated section,Erysiphe graminis; fungicide (b) alone 1000 ppm,12.5
FC(F)C(F)(F)OCC(Cn1cncn1)c1ccc(Cl)cc1Cl (stereo not drawn) [tetraconazole],diseased area ratio to non-treated section,Erysiphe graminis; fungicide (b) alone 0.125 ppm,60.0
same,diseased area ratio to non-treated section,Erysiphe graminis; fungicide (b) alone 0.5 ppm,52.5
"Cc1ccsc1C(=O)NC(C)(C)C(=O)c1ccc(OC(C)C)cc1 [Compound No. 8, N-[[4′-(2-propyloxy)-1,1-dimethyl]phenacyl]-3-methyl-2-thiophenecarboxamide]",diseased area ratio to non-treated section (experimental value),Sphaerotheca fuliginea; single use at 1 ppm,35.0
same,diseased area ratio to non-treated section (experimental value),Sphaerotheca fuliginea; single use at 2 ppm,10.0
same,diseased area ratio to non-treated section (experimental value),Septoria nodorum; single use at 12.5 ppm,35.0
same,diseased area ratio to non-treated section (experimental value),Septoria nodorum; single use at 50 ppm,20.0
S1SSSSSSS1 [sulfur],diseased area ratio to non-treated section,Erysiphe graminis; fungicide (b) alone 50 ppm,97.5
same,diseased area ratio to non-treated section,Erysiphe graminis; fungicide (b) alone 500 ppm,40.0
Fc1ccc(Oc2ccnc3cc(Cl)cc(Cl)c23)cc1 [quinoxyfen],diseased area ratio to non-treated section,Erysiphe graminis; fungicide (b) alone 0.06 ppm,80.0
same,diseased area ratio to non-treated section,Erysiphe graminis; fungicide (b) alone 0.125 ppm,77.5
"COc1ccccc1N1CCSC1=C(C#N)Sc1cc(C(F)(F)F)ccc1F [Compound γ, 2-(2-fluoro-5-(trifluoromethyl)phenylthio)-2-(3-(2-methoxyphenyl)thiazolidin-2-yliden)acetonitrile, reference compound]",diseased area ratio to non-treated section (experimental value),Botrytis cinerea [1]; single use at 1 ppm,88.6
same,diseased area ratio to non-treated section (experimental value),Botrytis cinerea [1]; single use at 10 ppm,88.6
Fc1ccc([C@]2(Cn3cncn3)O[C@H]2c2ccccc2Cl)cc1 (racemic) [epoxiconazole],diseased area ratio to non-treated section,Erysiphe graminis; fungicide (b) alone 0.5 ppm,21.2
same,diseased area ratio to non-treated section,Erysiphe graminis; fungicide (b) alone 1 ppm,3.0
CC(Cc1ccc(C(C)(C)C)cc1)CN1CCCCC1 (stereo not drawn) [fenpropidin],diseased area ratio to non-treated section,Erysiphe graminis; fungicide (b) alone 12.5 ppm,27.5
same,diseased area ratio to non-treated section,Erysiphe graminis; fungicide (b) alone 25 ppm,2.0
same,diseased area ratio to non-treated section,Erysiphe graminis; fungicide (b) alone 50 ppm,1.0
CCCC(C)Oc1ccc(C(=O)C(C)(C)NC(=O)c2ncccc2C(F)(F)F)cc1 (stereo not drawn) [No. 11],diseased area ratio to non-treated section,Erysiphe graminis; Compound No.x alone 63 ppm,45.0 and 60.0
same,diseased area ratio to non-treated section,Erysiphe graminis; Compound No.x alone 125 ppm,35.0
same,diseased area ratio to non-treated section,Erysiphe graminis; Compound No.x alone 250 ppm,22.5 and 12.5
same,diseased area ratio to non-treated section,Sphaerotheca fuliginea; Compound No.x alone 8 ppm,4.0
CC1(C)COC(C)(CCCc2ccc(Cl)cc2)N1C(=O)n1ccnc1.CC1(C)COC(C)(CCCc2ccc(Cl)cc2)N1C(=O)n1ccnc1.O=C(O)/C=C/C(=O)O (stereo not drawn) [oxpoconazole fumarate],distance from both ends of the filter paper to mycelial growth area of Botrytis cinerea (average),Botrytis cinerea [3],7.5 mm
